Data on one compound can be found in patent US9556113B2, “Combination uses of dichloroacetate and oxamate, and their prodrugs, for cancer treatment” (The South Dakota Board of Regents, priority 2014, dated 2017).

Assay [1] has as its system HPV+ HNSCC tumor. The experiment in a line: Tumor growth and survival with chemoradiation in RAG-1 immune-deficient mice. The class given is in vivo, RAG-1 mice. The note with it: in combination with chemoradiation. As to the method: FIG. 9 illustrates the effect of AT-N4-002 prodrug on tumor growth (A) and animal survival (B) in RAG-1 immune-deficient mice. Treatment conditions are the same as those described in FIG. 7.
To examine whether the prodrug AT-N4-002 also requires an immune response to control tumor growth, experiments were performed in RAG-1 mice. Based on our previous experience with DCA, we hypothesized that survival and tumor clearance would not be observed in these immune deficient mice following treatment with AT-N4-002. […] These immune-independent effects of AT-N4-002 on tumor growth in immune-deficient mice could be due to direct effects on tumor cell growth or cell death as described in Example 9, below.

For the next assay, the system named is E6E7/Ras cells. The experiment in a line: Extracellular acidification rate (ECAR), Seahorse XF24. In kind it is cell-based, mouse. The note with it: added at point B with additional glucose. The protocol: FIG. 6 illustrates the reduction of extracellular acidification rate (ECAR) by prodrugs AT-N4-001 and AT-N4-002. (A) ECAR was measured using a Seahorse XF24 instrument. At time point A glucose was added to the cultures. At time point B the indicated drugs were added with additional glucose. At time point C 2-deoxyglucose was added to block glycolysis. (B) Bar graph of ECAR at the time point indicated as Rate 8 in A.
AT-N4-001 and AT-N4-002 should each release two molecules of DCA and one molecule of oxamate. Both DCA and oxamate are expected to reduce cellular lactate production. Therefore, we examined the changes in lactate after treatment of E6E7/Ras cells with the prodrugs. E6E7/Ras cells were seeded into 100 mm dishes and the next day treated with 5 mM AT-N4-001, 5 mM AT-N4-002, 5 mM DCA plus 5 mM oxamate, or 5 mM DCA alone. Culture medium was collected after 4 hours of treatment and lactate levels were determined (FIG. 5). […] To confirm the effects of these compounds on lactate production, the extra cellular acidification rate (ECAR) was measured using a Seahorse XF24 Extracellular Flux analyzer. Since lactate is transported from cells together with a proton, acidification of the culture medium (ECAR) is an estimate of lactate production and the glycolytic rate of cells. In the experiment shown in FIG. 6A, ECAR measurements were initiated in the absence of glucose. […]

Assay [2] has as its system HPV+ HNSCC tumor. The experiment in a line: IHC of tumors for cleaved caspase 3 and Ki67. The class given is in vivo, wild-type mice. The conditions noted are these: one week treatment plus one round of CRT. The text has this: FIG. 10 illustrates Effect of AT-N4-002 on tumor cell apoptosis and cell proliferation. (A) Sections of tumors from mice treated either with chemo-radiation (Tx) or chemoradiation plus AT-N4-002 were subjected to IHC to detect cleaved caspase 3 or Ki67. (B) Cleaved caspase 3 positive cells were counted in 5 random fields from the IHC experiment shown in A. (C) The percent of Ki67 positive cells from the IHC experiment shown in A.
To examine potential direct, immune-independent effects of the prodrug on tumors, tumor bearing wild-type mice were treated for one week with AT-N4-002 plus one round of chemoradiation. Tumors were then harvested and processed for immunohistochemical detection of Ki67, a proliferation marker, and cleaved caspase 3, a marker for apoptosis (FIG. 10). […] Such direct effects on the tumor cells could be responsible for the reduced tumor growth observed in immune deficient mice.

The test system of assay [3] is HPV+ HNSCC tumor. The experiment in a line: Intratumoral pH and tumor lactate. In kind it is in vivo, wild-type mice. The protocol:
FIG. 11 illustrates the effect of prodrug on tumor pH and tumor lactate. (A) Intratumoral pH in living animals was determined by inserting a needle pH electrode directly into the tumor. The pH was read at 3 different depths in each tumor. Each marker on the graph represents a separate pH measurement. The bar represents the mean and the error bars the standard deviation. (B) Frozen sections of excised tumors were used to estimate lactate levels in the tumor microenvironment. This was performed using the In Vivo Xtreme imager to visualize lactate-dependent luciferase activity as described by Broggini-Tenzer et al. [Metabolism of tumors under treatment: mapping of metabolites with quantitative bioluminescence. Radiother Oncol 99, 398-403 (2011)]. (C) Plot of lactate measurements in B. Each marker represents one tumor. The bar represents the mean and the error bars the standard deviation.
The ability of DCA and oxamate to enhance survival in wild-type mice following chemoradiation correlates closely with their ability to reduce tumor lactate. We therefore examined the ability of the prodrug AT-N4-002 to reduce tumor lactate. Wild-type tumor bearing mice were treated with either CRT or CRT followed by one week of daily ip injection of AT-N4-002. Lactate is exported from cells together with a proton and therefore promotes acidification of the tumor microenvironment. Intratumoral pH was measured with a needle pH electrode. […] (FIG. 11B,C).

[4] abbreviates: CRT followed by one week of daily ip injection.

With `NC(=O)C(=O)OCC(COC(=O)C(Cl)Cl)OC(=O)C(Cl)Cl` (centres unmarked) [AT-N4-002, 3-(2-amino-2-oxoacetoxy)propane-1,2-diyl bis(2,2-dichloroacetate)], in the assay on HPV+ HNSCC tumor [1], the “survival in RAG-1 mice (FIG. 9B)” value is “lengthened survival” and the “tumor growth in RAG-1 mice (FIG. 9A)” value is reported as “slowed tumor growth”. In addition, in the assay on E6E7/Ras cells, the “increase in ECAR after glucose addition (FIG. 6)” value is listed as “completely blocked”. Also, in the assay with HPV+ HNSCC tumor [2], the “Ki67 positive cells in tumor (FIG. 10C)” value is “appeared to decrease” and the “cleaved caspase 3 positive cells in tumor compared to CRT alone (FIG. 10B)” value was “significantly increased”. For the same compound, in the assay on HPV+ HNSCC tumor [3] (setting [4]), the “intratumoral pH compared to CRT group (FIG. 11A)” value is on record as “significantly higher” and the “tumor lactate (FIG. 11B,C)” value is “decreased tumor lactate”. The “lactate production and acidity in tumor tissues versus DCA plus oxamate” value with HPV+ HNSCC tumor [3] (separate in vivo experiment, data not shown) is “more effective in reducing lactate production and acidity in tumor tissues than DCA plus oxamate”.
